Test results published in the supplement of paper PMC10627819.

What was measured:
Experiment in all cases: fitness (endpoint OD595 vs no drug) (fraction); higher = more growth
[1] = tested on: S. aureus Newman
How it was run: (§1)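 Fitness was measured as bacterial growth in 384-well plates inoculated at OD595 0.01 (30 µl, or 55 µl for S. pneumoniae). Media were TSB, LB Lennox or CY, at 37 °C. OD595 was read every 30 min for 14 h and background-subtracted against the first reading. Fitness is OD595 at the transition into stationary phase divided by the robust mean of no-drug control wells, capped at 1.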

[2] = tested on: B. subtilis 168
How it was run: as §1

[3] = tested on: S. pneumoniae D39V
How it was run: as §1
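Also: OD595 on entry to stationary phase over no-drug wells; at most 1.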

CC1(C)S[C@@H]2[C@H](NC(=O)Cc3ccccc3)C(=O)N2[C@H]1C(=O)O [Penicillin G] + CN(N=O)C(=O)N[C@@H](C=O)[C@@H](O)[C@H](O)[C@H](O)CO [Streptozotocin]
fitness, [1]
Settings	first compound 0.0195 µg/mL	first compound 0.039 µg/mL	first compound 0.078 µg/mL
partner 0.15 µg/mL	0.759	0.731	0.709
partner 0.3 µg/mL	0.623	0.627	0.621
partner 0.6 µg/mL	0.501	0.486	0.493

CC1(C)S[C@@H]2[C@H](NC(=O)Cc3ccccc3)C(=O)N2[C@H]1C(=O)O [Penicillin G] + CN[C@@H]1[C@H](O[C@H]2[C@H](O[C@H]3[C@H](O)[C@@H](O)[C@H](N=C(N)N)[C@@H](O)[C@@H]3N=C(N)N)O[C@@H](C)[C@]2(O)C=O)O[C@@H](CO)[C@H](O)[C@H]1O [Streptomycin]
fitness, [1]
Settings	first compound 0.0195 µg/mL	first compound 0.039 µg/mL	first compound 0.078 µg/mL
partner 1 µg/mL	0.903	0.878	0.887
partner 2 µg/mL	0.829	0.865	0.863

CO/N=C(\C(=O)N[C@@H]1C(=O)N2C(C(=O)O)=C(COC(N)=O)CS[C@H]12)c1ccco1 [Cefuroxime] + CO[C@@]12[C@H](COC(N)=O)C3=C(C(=O)C(C)=C(N)C3=O)N1C[C@@H]1N[C@@H]12 [Mitomycin C]
fitness, [1], one replicate
Settings	first compound 0.04875 µg/mL	first compound 0.0975 µg/mL	first compound 0.195 µg/mL
partner 0.0156 µg/mL	0.6	0.597	0.653
partner 0.0312 µg/mL	0.35	0.338	0.332
partner 0.0625 µg/mL	0.537	0.488	0.413

CO/N=C(\C(=O)N[C@@H]1C(=O)N2C(C(=O)O)=C(COC(N)=O)CS[C@H]12)c1ccco1 [Cefuroxime] + CC1(C)S[C@@H]2[C@H](NC(=O)Cc3ccccc3)C(=O)N2[C@H]1C(=O)O [Penicillin G]
fitness, [1], one replicate
Settings	first compound 0.04875 µg/mL	first compound 0.0975 µg/mL	first compound 0.195 µg/mL
partner 0.0195 µg/mL	0.873	0.849	0.889
partner 0.039 µg/mL	0.959	0.831	0.907
partner 0.078 µg/mL	0.898	0.888	0.906

CC1(C)S[C@@H]2[C@H](NC(=O)Cc3ccccc3)C(=O)N2[C@H]1C(=O)O [Penicillin G] + CN1C2=CC=CC=C2N=C3C1=CC=CC3=O [Pyocyanin]
fitness, [1]
Settings	first compound 0.0195 µg/mL	first compound 0.039 µg/mL	first compound 0.078 µg/mL
partner 1.25 µg/mL	0.807	0.831	0.801
partner 2.5 µg/mL	0.783	0.744	0.707
partner 5 µg/mL	0.434	0.334	0.302

CC1(C)S[C@@H]2[C@H](NC(=O)Cc3ccccc3)C(=O)N2[C@H]1C(=O)O [Penicillin G] + CC1=C\[C@@H](O)CC(=O)Cc2nc(co2)C(=O)N2CCC=C2C(=O)O[C@H](C(C)C)[C@H](C)/C=C/C(=O)NC\C=C\1 [Virginiamycin M1]
fitness, [1]
Settings	first compound 0.0195 µg/mL	first compound 0.039 µg/mL	first compound 0.078 µg/mL
partner 0.0625 µg/mL	0.896	0.929	0.917
partner 0.125 µg/mL	0.935	0.924	0.955
partner 0.25 µg/mL	0.914	0.913	0.925

fitness, [1], one replicate
Settings	first compound 0.0195 µg/mL	first compound 0.039 µg/mL	first compound 0.078 µg/mL
partner 0.5 µg/mL	0.834	0.766	0.788
partner 1 µg/mL	0.916	0.877	0.856
partner 2 µg/mL	0.807	0.741	0.717

CN(C)[C@@H]1C(O)=C(C(N)=O)C(=O)[C@@]2(O)C(O)=C3C(=O)c4c(O)ccc(Cl)c4[C@@](C)(O)[C@H]3C[C@@H]12 [Chlortetracycline] + CC1=C(C(=O)O)N2C(=O)[C@@H](NC(=O)[C@H](N)c3ccccc3)[C@H]2SC1 [Cephalexin]
fitness
Settings	first compound 0.0475 µg/mL	first compound 0.095 µg/mL	first compound 0.19 µg/mL	first compound 0.375 µg/mL	first compound 0.75 µg/mL	first compound 1.5 µg/mL
[2], partner 0.125 µg/mL	0.922	0.708	0.437	–	–	–
[2], partner 0.25 µg/mL	0.918	0.818	0.534	–	–	–
[2], partner 0.5 µg/mL	0.852	0.811	0.551	–	–	–
[3], partner 1 µg/mL	–	–	–	0.0846	0.0412	0.0388
[3], partner 2 µg/mL	–	–	–	0.0341	0.0584	0.0428
[3], partner 4 µg/mL	–	–	–	0.0429	0.0665	0.0379

fitness, one replicate
Settings	first compound 0.012 µg/mL	first compound 0.024 µg/mL	first compound 0.0475 µg/mL	first compound 0.048 µg/mL	first compound 0.095 µg/mL	first compound 0.19 µg/mL
[2], partner 1 µg/mL	–	–	0.936	–	0.827	0.606
[3], partner 0.125 µg/mL	0.933	0.86	–	0.797	–	–
[3], partner 0.25 µg/mL	0.872	0.809	–	0.762	–	–
[3], partner 0.5 µg/mL	0.883	0.84	–	0.706	–	–

CC1(C)S[C@@H]2[C@H](NC(=O)Cc3ccccc3)C(=O)N2[C@H]1C(=O)O [Penicillin G] + COc1ccc(C[C@H](N)C(=O)N[C@H]2[C@@H](O)[C@H](n3cnc4c(N(C)C)ncnc43)O[C@@H]2CO)cc1 [Puromycin]
fitness, [1]
Settings	first compound 0.0195 µg/mL	first compound 0.039 µg/mL	first compound 0.078 µg/mL
partner 0.39 µg/mL	0.879	0.933	0.909
partner 0.78 µg/mL	0.914	0.935	0.868
partner 1.56 µg/mL	0.929	0.941	0.961
